Source: article PMC8624998, “Synthesis and Antiproliferative Evaluation of 3-Chloroazetidin-2-ones with Antimitotic Activity: Heterocyclic Bridged Analogues of Combretastatin A-4” (Pharmaceuticals, 2021)
Read-outs that look alike come from different tables or passages of the source.

Assays:
IGROV1 = assay: NCI-60 5 dose screen, Ovarian Cancer; assay type: cell-based; conditions: Homo sapiens, IGROV-1
NCI-H226 = assay: NCI-60 5 dose screen, NSC Lung Cancer; assay type: cell-based; conditions: Homo sapiens
HT-29 cells = assay: Cell viability assay, antiproliferative activity; assay type: cell-based
Description: (§1) […]. The corresponding values for 10e in these cell lines were 161 nM (HL-60), 55 nM (SW480) and 135 nM (HT-29). […] […]. SW480 colon cells expressed low levels of the UDP-glucuronosyltransferase (UGT) protein compared to expression levels in HT-29 cells. […] […].
(§2) The human breast carcinoma cell line MCF-7 was purchased from the European Collection of Animal Cell Cultures (ECACC). Triple negative breast cancer Hs578T cells and its invasive variant Hs578Ts(i)8 were a kind gift from Dr. Susan McDonnell, School of Chemical and Bioprocess Engineering, University College Dublin. U266 cells were a gift from Dr. Tony McElligott, School of Medicine, St James’s Hospital, Trinity College Dublin. HT-29 cells were purchased from the European Collection of Cell Cultures (originating from a human adenocarcinoma of the colon). The human breast carcinoma cell line MDA-MB-231 and the HL-60 cells derived from a patient with acute myeloid leukaemia were both obtained from ECACC (Salisbury, UK). The SW-480 cells were a kind gift from Dr. Brian Flood, School of Biochemistry and Immunology, Trinity College Dublin. HEK-293T (normal epithelial embryonic kidney cells) were cultured in Dulbecco’s Modified Eagle’s Medium (DMEM) with GlutaMAXTM-I in the absence of non-essential amino acids. Human breast cancer MCF-7 cells and multiple myeloma U266 cells were cultured in Minimum Essential Media (MEM) with GlutaMAX™-I, supplemented with 1% (v/v) non-essential amino acids, 10% 2(v/v) foetal bovine serum (FBS) and 1% (v/v) penicillin/streptomycin 5000 U/mL. MDA-MB-231 cells were maintained in DMEM supplemented with 10% (v/v) foetal bovine serum, 2 mM L-glutamine and 100 μg/mL penicillin/streptomycin (complete medium). Colon cancer HT-29 and SW-480 and triple negative breast cancer Hs578T and its invasive variant Hs578T8i were cultured in DMEM with GlutaMAX™-I, with the same supplement in the absence of non-essential amino acids. Leukaemia HL-60 cancer cells were cultured in Roswell Park Memorial Institute Media (RPMI-1640) with GlutaMAX™-I, supplemented with 10% FCS media, and 100 μg/mL penicillin/streptomycin as above. Cell numbers were monitored using a haemocytometer. Cell culture flasks were incubated in a humidified incubator (5% CO2/95% air) at 37 °C. All cell lines were sub-cultured three times per week with trypsinisation using TrypLE Express (1X) required for adherent cell lines.
(§3) . All stock solutions and serial dilution in ethanol/DMSO were stored at -20 °C. All cells were seeded at a density of 2.5 × 10^4 cells/mL in a 96-well plate (200 μL per well). The cells were incubated in a […] atmosphere at 37 °C for 24 h, then treated with test compound (2 μL of stock solutions per 200-microlitre well) in ethanol to obtain a concentration range of 1 nM–200 μM for the study. The plates were then re-incubated for a further 72 h. Control wells contained an equivalent volume of the vehicle ethanol or DMSO (1% v/v). MTT cell viability assay: The culture medium was removed, and the cells were washed with phosphate buffered saline (PBS, […]). MTT (dissolved in PBS, […]) was added to obtain a final concentration of MTT (1 mg/mL). Cells were incubated at 37 °C for 3 h in the dark. Solubilisation was commenced by the addition of DMSO ([…]) and the cells were maintained at 20 °C in the dark for 20 min before reading the absorbance to ensure complete colour diffusion. The absorbance value of control cells (no added compound) was set to 100% cell viability and absorbance versus cell density per well was determined to assess cell viability using Graph-Pad Prism software. AlamarBlue cell viability assay: Cells were seeded in 96-well plates (e.g., MCF-7, 5 × 10^3 cells/well) and (HT-29 cells, 1 × 10^3 cells/well) and (HL-60 cells, 1 × 10^4 cells/well) with a total volume per well of 200 µL. After 24 h, cells were treated in triplicate with serial dilutions of CA-4 or β-lactam analogues (0.001–100 μM), medium alone or vehicle (1% ethanol (v/v)). […]

HL-60 cells = assay: Cell viability assay, antiproliferative activity; assay type: cell-based
Description: as §1, §2, §3

SF-268 = assay: NCI-60 5 dose screen, CNS Cancer; assay type: cell-based; conditions: Homo sapiens
NCI 60 cell line panel = assay: NCI 60 cell line screen, full panel; assay type: cell-based; conditions: for GI50: Homo sapiens; for LC50: read-out: LC50 (mean over NCI 60 panel)
Description: (§4) The novel 3-haloazetidinone compounds 10e, 11n and 16d were selected by NCI for further biological evaluation in the NCI 60 cell line screen following an initial Tier 1 profiling screen. […]. these values were in the sub-micromolar range for all the cell lines tested except for the breast cancer cell line T-47D, where the progesterone receptors are not regulated by estradiol. […]. [table]

[1] = NCI 60 cell line screen, full panel; assay type: cell-based; conditions: human
Description: as §4

A549/ATCC = assay: NCI-60 5 dose screen, NSC Lung Cancer; assay type: cell-based; conditions: Homo sapiens
PC-3 = assay: NCI-60 5 dose screen, Prostate cancer; assay type: cell-based; conditions: Homo sapiens
MCF-7 = assay: NCI-60 5 dose screen, Breast Cancer; assay type: cell-based; conditions: Homo sapiens, MCF7
UACC-62 = assay: NCI-60 5 dose screen, Melanoma; assay type: cell-based; conditions: Homo sapiens
HT29 = assay: NCI-60 5 dose screen, Colon Cancer; assay type: cell-based; conditions: Homo sapiens, HT-29
TK-10 = assay: NCI-60 5 dose screen, Renal Cancer; assay type: cell-based; conditions: Homo sapiens
SW-620 = assay: NCI-60 5 dose screen, Colon Cancer; assay type: cell-based; conditions: Homo sapiens
SW480 cells = assay: Cell viability assay, antiproliferative activity; assay type: cell-based, human
Description: as §1, §2, §3

[2] = Homo sapiens, HT-29, 72 h; read-out: HT-29 IC50
[3] = Homo sapiens, HL-60, 72 h; read-out: HL-60 IC50
[4] = 60 cell, NCI 60 panel mean, read-out: GI50 (mean over NCI 60 panel)
[5] = 60 cell, NCI 60 panel mean, read-out: MID GI50 (full panel mean-graph mid-point)
[6] = NCI 60 cancer cell line panel (mean over the panel), NCI 60 panel mean, read-out: LC50 (mean over NCI 60 panel)
[7] = MCF-7, NCI screen, read-out: GI50 in MCF-7 cells
[8] = Homo sapiens, SW480, 72 h; read-out: SW480 IC50

Work on `COc1ccc([C@H]2[C@H](Cl)C(=O)N2c2cc(OC)c(OC)c(OC)c2)cc1` (relative stereo) [Compound 10e trans, Trans-3-chloro-1-(3,4,5-trimethoxyphenyl)-4-(4-methoxyphenyl) azetidin-2-one] yielded a GI50 (IGROV1; IGROV1, read-out: GI50) of 58 nM, a GI50 (NCI-H226; read-out: GI50) of 55.7 nM and an IC50 (HT-29 cells; [2]) of 135 ± 60 nM. For the same compound, the IC50 (HL-60 cells; [3]) was 161 ± 20 nM, the GI50 (SF-268; read-out: GI50) was 158 nM and the GI50 (NCI 60 cell line panel; [4]) was 74.1 nM. It also gave a GI50 (NCI 60 cell line panel; [5]) of 74.1 nM, an LC50 (NCI 60 cell line panel; NCI 60 panel mean, listed as 10e) of 91200 nM and an LC50 [1, 6] of 81300 nM. The LC50 ([1]; NCI 60 cancer cell line panel, individual cell lines, all but one cell line for 10e, all but four cell lines for 11n, read-out: LC50 in individual cell lines) was over 100000 nM, the GI50 (A549/ATCC; A549/ATCC, read-out: GI50) was 78.5 nM and the GI50 (PC-3; read-out: GI50) was 44.1 nM. It also gave a GI50 (MCF-7; [7]) of 34 nM, a GI50 (MCF-7; MCF-7, read-out: GI50) of 34.3 nM and a GI50 (UACC-62; read-out: GI50) of 51.8 nM. For the same compound, the GI50 (HT29; HT29, read-out: GI50) was 29.2 nM, the GI50 (TK-10; read-out: GI50) was 92.2 nM and the GI50 (SW-620; read-out: GI50) was 43.2 nM. It also gave an IC50 (SW480 cells; [8]) of 55 ± 4 nM.
`COc1ccc(/C=C\c2cc(OC)c(OC)c(OC)c2)cc1O` [CA-4, Combretastatin A-4] showed an IC50 (HT-29 cells; Homo sapiens, HT-29; read-out: HT-29 IC50) of 4160 nM, an IC50 (HL-60 cells; [3]) of 1.9 ± 0.5 nM and an IC50 (HL-60 cells; Homo sapiens, HL-60; read-out: HL-60 IC50) of 2 nM. For the same compound, the GI50 (NCI 60 cell line panel; [4]) was 99 nM, the “TGI (mean over NCI 60 panel)” value (NCI 60 cell line panel; NCI 60 panel mean) was 10300 nM and the IC50 (SW480 cells; [8]) was 3 ± 0.8 nM.
For `COc1ccc(C2C(Cl)C(=O)N2c2cc(OC)c(OC)c(OC)c2)cc1O` (stereo not drawn) [Compound 10n, 3-Chloro-4-(3-hydroxy-4-methoxy-phenyl)-1-(3,4,5-trimethoxyphenyl)azetidin-2-one], the IC50 (HT-29 cells; [2]) was 631 ± 30 nM, the IC50 (HL-60 cells; [3]) was 10 ± 8 nM and the IC50 (SW480 cells; [8]) was 37 ± 5 nM.
Work on `COc1ccc(C2N(c3cc(OC)c(OC)c(OC)c3)C(=O)C2(Cl)Cl)cc1O` (stereo not drawn) [Compound 11n, 3,3-Dichloro-4-(3-hydroxy-4-methoxyphenyl)-1-(3,4,5-trimethoxyphenyl)azetidin-2-one] yielded a GI50 (IGROV1) of 44.5 nM, a GI50 (NCI-H226) of 36.8 nM and an IC50 (HT-29 cells; Homo sapiens, HT-29, 72 h, read-out: HT-29 IC50) of 941 ± 60 nM. It also gave an IC50 (HL-60 cells; Homo sapiens, HL-60, 72 h, read-out: HL-60 IC50) of 16 ± 5 nM, a GI50 (SF-268) of 51.4 nM and a GI50 (NCI 60 cell line panel; 60 cell, read-out: GI50 (mean over NCI 60 panel), NCI 60 panel mean) of 53.7 nM. For the same compound, the GI50 (NCI 60 cell line panel; 60 cell, read-out: GI50 in individual cell lines, 43 of the cell lines investigated) was under 100 nM, the GI50 (NCI 60 cell line panel; 60 cell, read-out: GI50 value, CNS cancer cell lines) was 19.9 to 51.4 nM and the GI50 (NCI 60 cell line panel; 60 cell, read-out: GI50 value, non-small cell lung cancer cell lines) was 16.4 to 46.4 nM. The GI50 (NCI 60 cell line panel; 60 cell, read-out: GI50 value, prostate cancer cell lines) was 35.3 to 35.9 nM, the GI50 (NCI 60 cell line panel; 60 cell, read-out: MID GI50 (full panel mean-graph mid-point), NCI 60 panel mean) was 53.7 nM and the GI50 (NCI 60 cell line panel; read-out: GI50 value, breast cancer cell lines apart from T-47D) was 22.6 to 42.8 nM. The “TGI (mean over NCI 60 panel)” value (NCI 60 cell line panel; NCI 60 panel mean) was 10000 nM, the LC50 (NCI 60 cell line panel; NCI 60 panel mean) was 83200 nM and the LC50 ([1]; NCI 60 panel mean, read-out: LC50 (mean over NCI 60 panel)) was 91200 nM. For the same compound, the LC50 ([1]; all but one cell line for 10e, all but four cell lines for 11n, read-out: LC50 in individual cell lines) was over 100000 nM, the GI50 (A549/ATCC; A549) was 38.2 nM and the GI50 (PC-3) was 35.3 nM. For the same compound, the GI50 (MCF-7) was 31 nM, the GI50 (UACC-62) was 42.2 nM and the GI50 (HT29) was 2780 nM. It also gave a GI50 (TK-10) of 126 nM, a GI50 (SW-620) of 37.6 nM and an IC50 (SW480 cells; Homo sapiens, SW480, 72 h, read-out: SW480 IC50) of 44 ± 8 nM.
`CCSc1ccc(C2C(Br)C(=O)N2c2cc(OC)c(OC)c(OC)c2)cc1` (stereo not drawn) [Compound 16d, 3-Bromo-4-(4-(ethylthio)phenyl)-1-(3,4,5-trimethoxyphenyl)azetidin-2-one] gave a GI50 (IGROV1; IGROV1, read-out: GI50) of 63 nM, a GI50 (NCI-H226; read-out: GI50) of 3110 nM and a GI50 (SF-268; read-out: GI50) of 1180 nM. It also gave a GI50 (NCI 60 cell line panel; [5]) of 407 nM, an LC50 (NCI 60 cell line panel; NCI 60 panel mean) of 81300 nM and an LC50 [1, 6] of 83200 nM. The GI50 (A549/ATCC; A549/ATCC, read-out: GI50) was 598 nM, the GI50 (PC-3; read-out: GI50) was 297 nM and the GI50 (MCF-7; [7]) was 44 nM. It also gave a GI50 (MCF-7; MCF-7, read-out: GI50) of 44.7 nM, a GI50 (UACC-62; read-out: GI50) of 97.2 nM and a GI50 (HT29; HT29, read-out: GI50) of 351 nM. For the same compound, the GI50 (TK-10; read-out: GI50) was 14300 nM and the GI50 (SW-620; read-out: GI50) was 236 nM.
